Measured values from patent US20180318199A1, “Pharmaceutical Composition Having Anti-Aging Properties against High-Glucose” (TAIWAN LEADER BIOTECH CORP., priority 2017, published 2018).
“Also recorded” adds a separate entry of the source.

How the values were obtained:
[1] = test system: p16^INK4A, p21^CIP1 and SMP30; assay: Western blot of senescence-associated marker proteins in HNDFs; type: cell-based, human
Experimental: In addition, in FIG. 2C, HNDFs are incubated with ANA (10 μM), ANH (10 μM) and ANM (10 μM) in the presence of HG (30 mM) for 72 h. Senescence-associated marker proteins such as p16^INK4A, p21^CIP1 and SMP30 are determined by western blot analysis.
In order to assess the cellular and molecular basis of the ANM-mediated inhibition of senescence, the expression levels of senescence-associated marker proteins including, p16^INK4A and p21^CIP1 are examined. In FIG. 4D, to determine the effect of ANM on senescence-associated protein expression, HNDFs are incubated with ANM (10 μM) or NAC (100 μM) in the presence or absence of HG (30 mM) for 72 h. Immunoblotting analysis is used to determine the protein levels with corresponding specific antibodies.
Cells are lysed by either RIPA lysis buffer or nuclear and cytoplasmic extraction reagents (Thermo Fisher Scientific). Protein concentrations are determined by Bio-Rad protein assay reagent (Bio-Rad Laboratories, Hercules, Calif.). Equal amounts of protein samples (60 μg) are separated by 7-12% SDS-PAGE and the separated proteins are transferred onto polyvinylidene […] (PVDC) membrane overnight. The transferred protein membranes are blocked with 5% non-fat dried milk for 30 min, followed by incubation with specific primary antibodies overnight, and either horseradish peroxidase-conjugated goat anti-rabbit or anti-mouse antibodies for 2 h. The blots are detected using VL Chemi-Smart 3000 (Viogene Biotek, Sunnyvale, Calif.) with the enhanced chemiluminescence (ECL) western blotting reagent (Millipore, Billerica, Mass.).

[2] = test system: wild-type N2 C. elegans; assay: C. elegans oxidative stress-resistance assay (Juglone); type: in vivo, Caenorhabditis elegans; settings: pretreatment 10 μM, 3 days; 250 μM Juglone 2.5, 3.5 and 4.5 h
Experimental: Please refer to FIG. 8A˜FIG. 8C, which are views showing the life span of wild-type C. elegans extended by ANM from oxidative stress. As shown in the figures, to further confirm the anti-oxidative property of ANM in vivo, C. elegans model is subjected. Wild-type N2 worms are pretreated with ANM for 3 days followed by exposure to oxidative stress. In FIG. 8A, to determine oxidative stress resistance, age synchronized wild-type L1 larvae are pretreated with ANM (10 and 20 μM) or DMSO (0.01%) for 3 days. Oxidative stress is induced by incubation of pre-treated worms with 250 μM Juglone for 2.5, 3.5 and 4.5 h and then scored for viability. Results are expressed as mean±S.E.M of three independent experiments. Statistical significance is ser at *P<0.05 as compared to control vs. sample treatment.
Age synchronized L1 larvae are incubated with liquid S-basal medium containing E. coli OP50 at a density of 1×10^9 cells. MI and 10 and 20 μM ANM or 0.01% DMSO (vehicle control) for 3 days. Subsequently, adult worms are subjected to oxidative stress assay. To induce oxidative stress, worms are incubated with Juglone (5-hydroxyl-1,4-naphthoquinone; Sigma), an ROS-generating agent. ANM treated and control worms are transferred to S-basal medium containing 250 μM Juglone, and incubated from 2.5, 3.5 and 4.5 h. After treatment, viable worms are scored. […] The test is performed triplicate.

[3] = test system: wild-type C. elegans; assay: C. elegans lifespan assay; type: in vivo, Caenorhabditis elegans
Experimental: It has been well documented that high glucose levels decrease the life span of C. elegans by increasing ROS formation and advance glycation end-product modification of mitochondrial proteins. Therefore, it is further investigated whether ANM has a protective effect against hyperglycemia-induced oxidative stress as well as anti-aging effects. Worms are incubated with high glucose (50 mM) with or without ANM […], and controlled for life span evaluation. In FIG. 8B, effect of ANM on the life span of C. elegans under hyperglycemic condition is examined. Age synchronized L1 larvae are transfected to NGM plates which contain HG (50 mM) with or without ANM (10 μM) and worms are developed to adulthood. The survival rate is scored everyday and is expressed as a percentage of survival. […] Results are expressed as mean±S.E.M of three independent experiments. Statistical significance is set at ^ϕP<0.05 as compared to control vs. HG, *P<0.05 as compared to HG vs. HG+sample and ̂P<0.05 as compared to control vs. samples.
Control worms are treated with 0.01% DMSO. All worms are kept 20° C. to develop adulthood. After 6 days, worms are transferred to plates containing glucose are applicable. Surviving and dead animals are counted daily (starting from the first day of adulthood) until all worms had died. […] Worms suffering from internal hatch (a defect in egg-laying) and those that crawled off the NGM plate are not included in the life-span assay. During the reproductive period, adult worms are transferred to fresh NGM plates every day during the progeny production period and then every other day thereafter. Life span assay result is obtained from three independent assays.

[4] = test system: p53 and FoxO1; assay: Western blot of p53 and FoxO1 acetylation in HUVECs; type: cell-based, human; settings: ANM 10 μM + HG 30 mM
Experimental: Please refer to FIG. 9A˜FIG. 9H, which are views showing HG-induced senescence prevented by ANM in human umbilical vein endothelial cells (HUVECs). As shown in the figures, to further delineate the protective effects of ANM on another cell system, experiments are designed to investigate the protective effect of ANM on HUVECs incubated in media containing either NG or HG alone or with ANM for 48 h. Cell viability is measured by MTT assay. […] Cell viability is determined by MTT assay. Percentage of viable cells are normalized with control cells (NG). […] In addition, in FIG. 9B, cellular senescence is determined by SA-β-gal activity assay. […] In addition, in FIG. 9C and FIG. 9D, total cell lysate is extracted and senescence-associated marker proteins including p16^INK4A, p21^CIP1 total and acetylated p53 and FoxO1 are measured by western blot analysis.
Cells are lysed by either RIPA lysis buffer or nuclear and cytoplasmic extraction reagents (Thermo Fisher Scientific). Protein concentrations are determined by Bio-Rad protein assay reagent (Bio-Rad Laboratories, Hercules, Calif.). […] The blots are detected using VL Chemi-Smart 3000 (Viogene Biotek, Sunnyvale, Calif.) with the enhanced chemiluminescence (ECL) western blotting reagent (Millipore, Billerica, Mass.).

[5] = test system: Nrf2; assay: ARE luciferase reporter assay in HUVECs; type: cell-based, human; settings: ANM 10 μM or RES 5 μM + HG 30 mM, 6 h; HG alone 0.5-fold, control 1-fold
Experimental: Cell lysates are mixed with luciferase reagents and quantified using an illuminometer. Relative ARE promoter activity is calculated by dividing the relative luciferase unit (RLU) of treated cells by RLU of untreated cells (NG). Results are expressed as mean±SEM of three independent experiments. Statistical significance is set at ^ϕP<0.05 as compared to NG vs. HG and *P<0.05 as compared to HG vs. samples.
ARE promoter activity is measured using a dual-luciferase reporter assay system (Promega, Madison, Wis.). […] Cells are then transfected with ARE plasmid (Qiagen, Hilden, Germany) using Lipofectamine 2000 (Invitrogen) and incubated for 36 h. […] The cell lysate is prepared and incubated with luciferase agents and the relative luminescence intensity is quantified using a spectrophotometer (Hidex Oy, Turku, Finland).

## C=C(CCC(C)C1CCC2C3=C(C(=O)C(O)C21C)C1(C)CCC(O)C(C)C1CC3)C(C)C(=O)O (centres unmarked) [ANM, antcin M]
[1]; 10 μM + HG 30 mM, 72 h
  SMP30 protein under HG (western blot): significantly upregulated
[1]; 10 μM + HG 30 mM, 72 h, western blot
  HG-induced p16^INK4A and p21^CIP1 protein expression: significantly downregulated; also recorded: significantly attenuates
[1]; ANM alone, no HG
  basal level of p21^CIP1 expression: significantly reduces
[2]
  survival rate of worms exposed to Juglone-induced oxidative stress: significantly increases
[3]; ANM 10 μM or RES 438 μM vs control
  life span of C. elegans under normal condition: significantly (P<0.026) prolongs
[3]; HG 50 mM with ANM 10 μM vs HG alone
  life span of C. elegans under hyperglycemic condition: significant (P<0.0001) increase
[4]
  HG-induced p53 and FoxO1 acetylation in HUVECs: significantly blocks
[5]
  relative ARE luciferase activity in HUVECs co-incubated with HG: 4.8 fold
